Numbers after ± are expanded uncertainties.
Test: xn = mol fraction of the nth substance listed
Conditions: 101 kPa, Liquid; for viscosity: Falling or rolling sphere viscometry; for speed of sound: Sing-around technique in a fixed-path interferometer; for mass density: Vibrating tube method

For CCCC[n+]1ccn(C)c1.O=S(=O)([N-]S(=O)(=O)C(F)(F)F)C(F)(F)F + CCO, the viscosity (278.15 K, x1 = 0.049) was 2.64 ± 0.02 mPa·s, the viscosity (278.15 K, x1 = 0.096) was 3.8 ± 0.03 mPa·s and the viscosity (278.15 K, x1 = 0.194) was 7.4 ± 0.06 mPa·s. For the same compound, the viscosity (278.15 K, x1 = 0.288) was 12.59 ± 0.1 mPa·s, the viscosity (278.15 K, x1 = 0.39) was 18.82 ± 0.15 mPa·s and the viscosity (278.15 K, x1 = 0.484) was 26.93 ± 0.21 mPa·s. It also gave a viscosity (278.15 K, x1 = 0.591) of 38 ± 0.3 mPa·s, a viscosity (278.15 K, x1 = 0.696) of 52.96 ± 0.15 mPa·s and a viscosity (278.15 K, x1 = 0.818) of 77.99 ± 1.2 mPa·s. For the same compound, the viscosity (278.15 K, x1 = 0.9) was 99.43 ± 2.3 mPa·s, the viscosity (278.15 K, x1 = 1) was 139.82 ± 4.8 mPa·s and the speed of sound (278.15 K, x1 = 0.049) was 1204.6 ± 0.63 m/s. The speed of sound (278.15 K, x1 = 0.096) was 1204.5 ± 0.63 m/s, the speed of sound (278.15 K, x1 = 0.194) was 1213.9 ± 0.64 m/s and the speed of sound (278.15 K, x1 = 0.288) was 1225.4 ± 0.64 m/s. It also gave a speed of sound (278.15 K, x1 = 0.39) of 1237.1 ± 0.64 m/s, a speed of sound (278.15 K, x1 = 0.484) of 1245.5 ± 0.65 m/s and a speed of sound (278.15 K, x1 = 0.591) of 1253.5 ± 0.65 m/s. It also gave a speed of sound (278.15 K, x1 = 0.696) of 1260 ± 0.65 m/s, a speed of sound (278.15 K, x1 = 0.818) of 1266.3 ± 0.65 m/s and a speed of sound (278.15 K, x1 = 0.9) of 1269.8 ± 0.66 m/s. It also gave a speed of sound (278.15 K, x1 = 1) of 1273.8 ± 0.66 m/s, a mass density (278.15 K, x1 = 0.049) of 939.65 ± 0.13 kg/m3 and a mass density (278.15 K, x1 = 0.096) of 1032.42 ± 0.15 kg/m3. For the same compound, the mass density (278.15 K, x1 = 0.194) was 1162.65 ± 0.23 kg/m3, the mass density (278.15 K, x1 = 0.288) was 1241.69 ± 0.24 kg/m3 and the mass density (278.15 K, x1 = 0.39) was 1300.98 ± 0.25 kg/m3. For the same compound, the mass density (278.15 K, x1 = 0.484) was 1340.75 ± 0.25 kg/m3, the mass density (278.15 K, x1 = 0.591) was 1375.63 ± 0.22 kg/m3 and the mass density (278.15 K, x1 = 0.696) was 1401.82 ± 0.2 kg/m3. The mass density (278.15 K, x1 = 0.818) was 1426.17 ± 0.21 kg/m3, the mass density (278.15 K, x1 = 0.9) was 1439.65 ± 0.21 kg/m3 and the mass density (278.15 K, x1 = 1) was 1453.69 ± 0.21 kg/m3. The viscosity (298.15 K, x1 = 0.049) was 1.71 ± 0.01 mPa·s, the viscosity (298.15 K, x1 = 0.096) was 2.35 ± 0.02 mPa·s and the viscosity (298.15 K, x1 = 0.194) was 4.13 ± 0.03 mPa·s. It also gave a viscosity (298.15 K, x1 = 0.288) of 6.64 ± 0.05 mPa·s, a viscosity (298.15 K, x1 = 0.39) of 9.5 ± 0.08 mPa·s and a viscosity (298.15 K, x1 = 0.484) of 12.92 ± 0.1 mPa·s. For the same compound, the viscosity (298.15 K, x1 = 0.591) was 17.3 ± 0.14 mPa·s, the viscosity (298.15 K, x1 = 0.696) was 22.86 ± 0.18 mPa·s and the viscosity (298.15 K, x1 = 0.818) was 31.21 ± 0.24 mPa·s. The viscosity (298.15 K, x1 = 0.9) was 38.05 ± 0.3 mPa·s, the viscosity (298.15 K, x1 = 1) was 51.22 ± 0.12 mPa·s and the speed of sound (298.15 K, x1 = 0.049) was 1142.4 ± 0.61 m/s. It also gave a speed of sound (298.15 K, x1 = 0.096) of 1146.4 ± 0.61 m/s, a speed of sound (298.15 K, x1 = 0.194) of 1160.7 ± 0.62 m/s and a speed of sound (298.15 K, x1 = 0.288) of 1174.6 ± 0.62 m/s. It also gave a speed of sound (298.15 K, x1 = 0.39) of 1188 ± 0.63 m/s, a speed of sound (298.15 K, x1 = 0.484) of 1197.4 ± 0.63 m/s and a speed of sound (298.15 K, x1 = 0.591) of 1206.2 ± 0.63 m/s. The speed of sound (298.15 K, x1 = 0.696) was 1213.2 ± 0.63 m/s, the speed of sound (298.15 K, x1 = 0.818) was 1219.8 ± 0.64 m/s and the speed of sound (298.15 K, x1 = 0.9) was 1223.6 ± 0.64 m/s. It also gave a speed of sound (298.15 K, x1 = 1) of 1227.5 ± 0.64 m/s, a mass density (298.15 K, x1 = 0.049) of 921.49 ± 0.13 kg/m3 and a mass density (298.15 K, x1 = 0.096) of 1013.65 ± 0.15 kg/m3. The mass density (298.15 K, x1 = 0.194) was 1143.26 ± 0.23 kg/m3, the mass density (298.15 K, x1 = 0.288) was 1222.07 ± 0.24 kg/m3 and the mass density (298.15 K, x1 = 0.39) was 1281.27 ± 0.25 kg/m3. It also gave a mass density (298.15 K, x1 = 0.484) of 1321.04 ± 0.24 kg/m3, a mass density (298.15 K, x1 = 0.591) of 1355.98 ± 0.21 kg/m3 and a mass density (298.15 K, x1 = 0.696) of 1382.23 ± 0.2 kg/m3. For the same compound, the mass density (298.15 K, x1 = 0.818) was 1406.65 ± 0.2 kg/m3, the mass density (298.15 K, x1 = 0.9) was 1420.19 ± 0.2 kg/m3 and the mass density (298.15 K, x1 = 1) was 1434.23 ± 0.21 kg/m3. For the same compound, the viscosity (318.15 K, x1 = 0.049) was 1.18 ± 0.01 mPa·s, the viscosity (318.15 K, x1 = 0.096) was 1.57 ± 0.01 mPa·s and the viscosity (318.15 K, x1 = 0.194) was 2.61 ± 0.02 mPa·s. It also gave a viscosity (318.15 K, x1 = 0.288) of 3.95 ± 0.03 mPa·s, a viscosity (318.15 K, x1 = 0.39) of 5.62 ± 0.04 mPa·s and a viscosity (318.15 K, x1 = 0.484) of 7.52 ± 0.06 mPa·s. For the same compound, the viscosity (318.15 K, x1 = 0.591) was 9.76 ± 0.08 mPa·s, the viscosity (318.15 K, x1 = 0.696) was 12.42 ± 0.1 mPa·s and the viscosity (318.15 K, x1 = 0.818) was 16.16 ± 0.13 mPa·s. It also gave a viscosity (318.15 K, x1 = 0.9) of 19.03 ± 0.15 mPa·s, a viscosity (318.15 K, x1 = 1) of 24.36 ± 0.19 mPa·s and a speed of sound (318.15 K, x1 = 0.049) of 1082 ± 0.59 m/s. It also gave a speed of sound (318.15 K, x1 = 0.096) of 1090 ± 0.59 m/s, a speed of sound (318.15 K, x1 = 0.194) of 1109.1 ± 0.6 m/s and a speed of sound (318.15 K, x1 = 0.288) of 1125.5 ± 0.6 m/s. For the same compound, the speed of sound (318.15 K, x1 = 0.39) was 1140.5 ± 0.61 m/s, the speed of sound (318.15 K, x1 = 0.484) was 1150.8 ± 0.61 m/s and the speed of sound (318.15 K, x1 = 0.591) was 1160.7 ± 0.62 m/s. The speed of sound (318.15 K, x1 = 0.696) was 1168.3 ± 0.62 m/s, the speed of sound (318.15 K, x1 = 0.818) was 1175.6 ± 0.62 m/s and the speed of sound (318.15 K, x1 = 0.9) was 1179.7 ± 0.62 m/s. For the same compound, the speed of sound (318.15 K, x1 = 1) was 1184 ± 0.62 m/s, the mass density (318.15 K, x1 = 0.049) was 903.02 ± 0.14 kg/m3 and the mass density (318.15 K, x1 = 0.096) was 994.64 ± 0.15 kg/m3. For the same compound, the mass density (318.15 K, x1 = 0.194) was 1123.77 ± 0.23 kg/m3, the mass density (318.15 K, x1 = 0.288) was 1202.45 ± 0.23 kg/m3 and the mass density (318.15 K, x1 = 0.39) was 1261.65 ± 0.24 kg/m3. The mass density (318.15 K, x1 = 0.484) was 1301.51 ± 0.24 kg/m3, the mass density (318.15 K, x1 = 0.591) was 1336.54 ± 0.21 kg/m3 and the mass density (318.15 K, x1 = 0.696) was 1362.91 ± 0.19 kg/m3. It also gave a mass density (318.15 K, x1 = 0.818) of 1387.44 ± 0.19 kg/m3, a mass density (318.15 K, x1 = 0.9) of 1401.04 ± 0.19 kg/m3 and a mass density (318.15 K, x1 = 1) of 1415.13 ± 0.2 kg/m3. For the same compound, the viscosity (338.15 K, x1 = 0.049) was 0.85 ± 0.01 mPa·s, the viscosity (338.15 K, x1 = 0.096) was 1.12 ± 0.01 mPa·s and the viscosity (338.15 K, x1 = 0.194) was 1.79 ± 0.02 mPa·s. It also gave a viscosity (338.15 K, x1 = 0.288) of 2.71 ± 0.02 mPa·s, a viscosity (338.15 K, x1 = 0.39) of 3.7 ± 0.03 mPa·s and a viscosity (338.15 K, x1 = 0.484) of 4.86 ± 0.04 mPa·s. The viscosity (338.15 K, x1 = 0.591) was 6.26 ± 0.05 mPa·s, the viscosity (338.15 K, x1 = 0.696) was 7.79 ± 0.06 mPa·s and the viscosity (338.15 K, x1 = 0.818) was 9.83 ± 0.08 mPa·s. It also gave a viscosity (338.15 K, x1 = 0.9) of 11.28 ± 0.09 mPa·s, a viscosity (338.15 K, x1 = 1) of 13.94 ± 0.11 mPa·s and a speed of sound (338.15 K, x1 = 0.049) of 1022.5 ± 0.56 m/s. It also gave a speed of sound (338.15 K, x1 = 0.096) of 1034.5 ± 0.57 m/s, a speed of sound (338.15 K, x1 = 0.194) of 1058.5 ± 0.58 m/s and a speed of sound (338.15 K, x1 = 0.288) of 1077.4 ± 0.59 m/s. The speed of sound (338.15 K, x1 = 0.39) was 1094.2 ± 0.59 m/s, the speed of sound (338.15 K, x1 = 0.484) was 1105.8 ± 0.6 m/s and the speed of sound (338.15 K, x1 = 0.591) was 1116.5 ± 0.6 m/s. The speed of sound (338.15 K, x1 = 0.696) was 1124.9 ± 0.6 m/s, the speed of sound (338.15 K, x1 = 0.818) was 1133 ± 0.6 m/s and the speed of sound (338.15 K, x1 = 0.9) was 1137.6 ± 0.61 m/s. It also gave a speed of sound (338.15 K, x1 = 1) of 1142.7 ± 0.61 m/s, a mass density (338.15 K, x1 = 0.049) of 883.95 ± 0.14 kg/m3 and a mass density (338.15 K, x1 = 0.096) of 975.18 ± 0.15 kg/m3. The mass density (338.15 K, x1 = 0.194) was 1104.04 ± 0.23 kg/m3, the mass density (338.15 K, x1 = 0.288) was 1182.73 ± 0.23 kg/m3 and the mass density (338.15 K, x1 = 0.39) was 1242.06 ± 0.24 kg/m3. The mass density (338.15 K, x1 = 0.484) was 1282.08 ± 0.23 kg/m3, the mass density (338.15 K, x1 = 0.591) was 1317.28 ± 0.2 kg/m3 and the mass density (338.15 K, x1 = 0.696) was 1343.8 ± 0.18 kg/m3. The mass density (338.15 K, x1 = 0.818) was 1368.47 ± 0.18 kg/m3, the mass density (338.15 K, x1 = 0.9) was 1382.15 ± 0.19 kg/m3 and the mass density (338.15 K, x1 = 1) was 1396.35 ± 0.19 kg/m3.
